Assay results taken from PMC5387716, “Discovery of monocarbonyl curcumin-BTP hybrids as STAT3 inhibitors for drug-sensitive and drug-resistant breast cancer therapy” (Scientific Reports, 2017).

Assays:
Type in all cases: cell-based, human
[1] = system: PARP, Caspase 9 and Caspase 3; test: Western blot of cleaved PARP, Caspase 9 and Caspase 3
MCF-7/DOX cells [2] = test: Colony survival assay, MCF-7/DOX; conditions: 24 h treatment, 14 d culture
Description: (§1) MCF-7 or MCF-7/DOX cells were cultured a 6-well plate at a density of 800–1,000 cells/well with regular growth medium. Cells were treated for 24 h with the vehicle and 6b at 0.15–1 μM on the following day. Cells were allowed to grow for 10–14 d until colonies were visible. Crystal violet solution (Sigma, St. Louis, MO, USA) was used to stain the colonies for 4 hours and colonies were imaged.

MCF-7/DOX cells [3] = test: Annexin V-APC/7-AAD flow cytometry of apoptosis, MCF-7/DOX; conditions: 24 h
Description: MCF-7, MCF-7/DOX or MCF-10A cells, at a density of 2.5 × 10^5 cells per well, were cultured in regular growth medium in 6-well plates for 24 h and treated in duplicate with different concentrations of 6b or curcumin for 24 h. The cells were harvested, washed and stained with 5 μL of Annexin V-APC and 5 μL of 7-AAD at room temperature for 15 min. Cells were then analyzed by flow cytometry (488 nm excitation and 600 nm emission filters) using a BD FACSCalibur flow cytometer (Becton & Dickinson Company, Franklin Lakes, NJ).

Bcl-2 = test: Western blot of Bcl-2; conditions: MCF-7 and MCF-7/DOX cells, 24 h
Description: (§2) MCF-7 or MCF-7/DOX cells were incubated with various concentrations of 6b for 24 h. After trypsinization, cells were treated with 1× RIPA lysis buffer (50 mM Tris–HCl, pH 7.4, 150 mM NaCl, 0.25% deoxycholic acid, 1% NP-40, 1 mM EDTA and protease inhibitors) (Amresco, Solon, USA) to extract the total proteins. An aliquot of proteins from the total cell lysates (30 to 60 μg/lane) was separated by sodium dodecyl sulfate (10%) polyacrylamide gel electrophoresis (SDS–PAGE, Bio-Rad Laboratories, Hercules, CA), wet-transferred to NC membrane (Bio-Rad Laboratories, Hercules, CA) and blotted with primary antibodies specific for STAT3, p-STAT3, p-Jak2, Jak2, p-Src, Src, Erk, P-Erk, PARP, cleaved PARP, Bcl-2, Bax, Cyclin D1, P-gp and GAPDH. Bound immuno-complexes were detected using ChemiDOC™ XRS + system (Bio-Rad Laboratories, Hercules, CA).

STAT3 = test: Immunofluorescence of p-STAT3 nuclear translocation; conditions: MCF-7 cells, 6 h then IL-6 50 ng/ml 30 min
Description: The basic protocol for the analysis of p-STAT3 subcellular location has been previously described. Briefly, MCF-7 cells were starved overnight, followed by incubation with 6b for 6 h. Cells were then stimulated with 50 ng/ml IL-6 for 30 min before being harvested in Tris-buffered saline (TBS) containing 1 mM sodium orthovanadate. Cells were transferred to polylysine-coated slides by cytospin and air dried for 20 min at room temperature. After being fixed in 2% of paraformaldehyde for 10 min and permeabilized in 0.1% Triton X-100 for 5 min, cells were blocked in TBS containing 5% bovine serum albumin for 1 h at room temperature before being stained with p-STAT3 (Tyr705) overnight at 4 °C. Then, cells were gently washed and incubated with FITC–conjugated, goat, anti-rabbit IgG (Beyotime Biotechnology Ltd). Finally, slides were incubated with 5 μg/ml of 4′,6-diamidino-2-phenylindole (DAPI, Beyotime) for 5 min. The subcellular location and relative abundance of p-STAT3 were immediately analyzed with an ImageXpress Micro Confocal analysis.

Bax = test: Western blot of Bax; conditions: MCF-7 and MCF-7/DOX cells, 24 h
Description: as §2

MCF-10A cells = test: MTT anti-proliferative assay, MCF-10A; conditions: 48 h, normal breast epithelial cells, Table 2 prints no unit, μM
Description: (§3) All cell lines were purchased from Cell Bank of Shanghai Institute of Biochemistry and Cell Biology, Chinese Academy of Sciences (Shanghai, China). Human breast carcinoma cells (MCF-7 and MCF-7/DOX), breast epithelial cells (MCF-10A) and normal human liver cells (LO2) were maintained in RPMI-1640 medium. All cells were supplemented with 12% fetal bovine serum containing 50 μg/ml penicillin and 50 μg/ml streptomycin. Cells were grown to 80% confluency in a tissue culture flask at 37 °C in a humidified atmosphere containing 5% CO2, and then were trypsinized with 1 × Trypsin-Versene and split. The MCF-7/DOX cell line we used was established from its parental cell line MCF-7 cell by gradually increasing the concentration of DOX to which the cells were exposed in a stepwise manner over a period of 8 months. […] The cells were incubated in drug-free medium for at least 1 week before use.
(§4) Cells (MCF-7, MCF-7/DOX, MCF-10A, LO2) were seeded in 96-well plates at a density of 3,000–6,000 cells per well. The cells were incubated overnight (16 h) in a humidified 5% CO2 incubator at 37 °C. After media removal, different concentrations of test compounds were added in triplicate to the plates in 200 μL of fresh media and were incubated with the cells at 37 °C for 48 h. […] Cell viability was evaluated using 3-(4, 5-dimethylthiazolyl)-2,5-diphenyltetrazoliumbromide (MTT). The absorbance was read by an ELISA reader (SpectraMax Plus384, Molecular Devices, Sunnyvale, CA) at a test wavelength of 570 nm and a reference wavelength of 630 nm. Cell viability was calculated using the following formula: […]

P-gp = test: Western blot of P-gp; conditions: MCF-7/DOX cells, 24 h
Description: as §2

Erk1/2 = test: Western blot of p-Erk1/2; conditions: MCF-7 and MCF-7/DOX cells, 24 h
Description: as §2

MCF-7 cells [4] = test: MTT anti-proliferative assay, MCF-7; conditions: Homo sapiens, MCF7, 48 h, read-out: MCF-7 IC50 ± SD
Description: as §3, §4

MCF-7 cells [5] = test: Colony survival assay, MCF-7; conditions: 24 h treatment, 14 d culture
Description: as §1

IC50 (MCF-7 cells [4]): 0.52 ± 0.16 µM
Compound: COc1ccc(/C=C/C(=O)N2CCN(C(=O)C3=Cc4cc(Br)ccc4S3(=O)=O)CC2)cc1 [Compound 6b, (E)-1-(4-(5-bromo-1,1-dioxidobenzo[b]thiophene-2-carbonyl)piperazin-1-yl)-3-(4-methoxyphenyl)prop-2-en-1-one]
cleavage of PARP, Caspase 9 and Caspase 3 ([1]; MCF-7 and MCF-7/DOX cells): induced the cleavage
cleaved PARP ([1]; MCF-10A cells, concentrations up to 4 μM): little
clonogenic ability / colony formation (MCF-7/DOX cells [2]; 0.25 μM): significant reduction in clonogenic ability
clonogenic ability / colony formation (MCF-7/DOX cells [2]; 0.5 μM): almost a cessation of colony formation
apoptosis rate (MCF-7/DOX cells [3]; 1 μM): 18.5%
apoptosis rate (MCF-7/DOX cells [3]; 2 μM): 50.1%
apoptosis rate (MCF-7/DOX cells [3]; 4 μM): 66.4%
expression of Bcl-2 (protein) (Bcl-2): inhibited
p-STAT3 level in the nucleus (STAT3): sharp decrease
expression of Bax (protein) (Bax): increased
IC50 (MCF-10A cells): 7.72 ± 0.56 µM
IC50 (MCF-10A cells; Homo sapiens, MCF-10A): 7.7 µM
P-gp expression (P-gp): decreased P-gp expression in MCF-7/DOX cells in a dose-dependent manner
p-Erk1/2 expression (Erk1/2): little effect
clonogenic ability / colony formation (MCF-7 cells [5]; MCF-7, 0.25 μM): significant reduction in clonogenic ability
clonogenic ability / colony formation (MCF-7 cells [5]; MCF-7, 0.5 μM): almost a cessation of colony formation
